Experimental data taken from ChEMBL document CHEMBL4837202, “Design, synthesis of novel celastrol derivatives and study on their antitumor growth through HIF-1α pathway” (Eur J Med Chem, 2021).
In brackets after ≈: the same amount, converted by molar mass. Activity calls are given as the source filed them. The rule behind the calls is not given here.

Legend:
[1] = tested on: Hep 3B2; test: Induction of apoptosis in human Hep3B cells assessed as necrotic cells at 10 uM incubated for 24 hrs by PI and annexin V-FITC staining based flow cytometry (reference value: 0.1%); format: functional
[2] = tested on: HCT-116; test: Antitumour activity against human HCT-116 cells xenografted BALB/c mouse with assessed as morphological changes in tumour tissue at 10 mg/kg, ip administered every day measured after 21 days H and E staining based optical microscopic method; format: functional, organism-based; conditions: time 21.0 day
[3] = tested on: Hep 3B2; test: Induction of apoptosis in human Hep3B cells assessed as early apoptotic cells at 3 uM incubated for 24 hrs by PI and annexin V-FITC staining based flow cytometry (reference value: 1.2%); format: functional
[4] = tested on: Hep 3B2; test: Induction of apoptosis in human Hep3B cells assessed as early apoptotic cells at 1 uM incubated for 24 hrs by PI and annexin V-FITC staining based flow cytometry (reference value: 1.2%); format: functional
[5] = tested on: Hep 3B2; test: Induction of apoptosis in human Hep3B cells assessed as early apoptotic cells at 10 uM incubated for 24 hrs by PI and annexin V-FITC staining based flow cytometry (reference value: 1.2%); format: functional
[6] = tested on: Hep 3B2; test: Induction of apoptosis in human Hep3B cells assessed as viable cells at 1 uM incubated for 24 hrs by PI and annexin V-FITC staining based flow cytometry (reference value: 97.0%); format: functional; conditions: read-out: Activity
[7] = Toxicity in BALB/c mouse xenografted […] HCT-116 cells assessed as effect on body weight at 5 mg/kg, ip administered every day measured after 21 days; format: organism-based; conditions: in vivo, 504 h, time 21 day
[8] = tested on: Hep 3B2; test: Induction of apoptosis in human Hep3B cells assessed as viable cells at 3 uM incubated for 24 hrs by PI and annexin V-FITC staining based flow cytometry (reference value: 97.0%); format: functional; conditions: read-out: Activity
[9] = tested on: Hep 3B2; test: Induction of apoptosis in human Hep3B cells assessed as necrotic cells at 1 uM incubated for 24 hrs by PI and annexin V-FITC staining based flow cytometry (reference value: 0.1%); format: functional
[10] = tested on: Hep 3B2; test: Induction of apoptosis in human Hep3B cells assessed as viable cells at 10 uM incubated for 24 hrs by PI and annexin V-FITC staining based flow cytometry (reference value: 97.0%); format: functional; conditions: read-out: Activity
[11] = tested on: Hep 3B2; test: Inhibition of hypoxia-induced HIF1alpha protein expression in human Hep3B cells incubated for 12 hrs in presence of 1% O2 under hypoxic condition by Western blot analysis; format: functional, cell-based; conditions: dose 1-10 µM
[12] = tested on: Hep 3B2; test: Induction of apoptosis in human Hep3B cells assessed as late apoptotic cells at 10 uM incubated for 24 hrs by PI and annexin V-FITC staining based flow cytometry (reference value: 1.6%); format: functional
[13] = tested on: HCT-116; test: Antitumour activity against human HCT-116 cells xenografted BALB/c mouse with assessed as morphological changes in tumour tissue at 5 mg/kg, ip administered every day measured after 21 days H and E staining based optical microscopic method; format: functional, organism-based; conditions: time 21.0 day
[14] = tested on: HCT-116; test: Antitumour activity against human HCT-116 cells xenografted in nude BALB/c mouse assessed as tumour growth inhibition at 5 mg/kg, ip administered for 20 days relative to control; format: functional; design: scale not given: the % may be the effect or the level left; conditions: time 20 day
[15] = Solubility of the compound in water measured by UV-Visible spectral analysis; format: physicochemical
[16] = Toxicity in BALB/c mouse xenografted […] HCT-116 cells assessed as effect on body weight at 10 mg/kg, ip administered every day measured after 21 days; format: organism-based; conditions: in vivo, 504 h, time 21 day
[17] = tested on: HCT-116; test: Antitumour activity against human HCT-116 cells xenografted in nude BALB/c mouse assessed as tumour growth inhibition at 10 mg/kg, ip administered for 20 days relative to control; format: functional; design: scale not given: the % may be the effect or the level left; conditions: time 20 day
[18] = tested on: Hep 3B2; test: Inhibition of cell migration in human Hep3B cells at incubated for 48 hrs by scratch wound healing assay; format: functional, cell-based; conditions: dose 1-10 µM
[19] = tested on: Hep 3B2; test: Inhibition of cell migration in human Hep3B cells at incubated for 24 hrs by scratch wound healing assay; format: functional, cell-based; conditions: dose 1-10 µM
[20] = tested on: Hep 3B2; test: Antiproliferative activity against human Hep3B cells assessed as reduction in colony formation incubated for 7 days by crystal violet staining based assay; format: functional, cell-based; conditions: dose 1-10 µM, time 7.0 day
[21] = tested on: Hep 3B2; test: Cytotoxicity against human Hep3B cells assessed as reduction in cell viability incubated for 24 hrs under normaxic condition by MTT assay; format: cell-based
[22] = tested on: Hep 3B2; test: Induction of apoptosis in human Hep3B cells assessed as late apoptotic cells at 3 uM incubated for 24 hrs by PI and annexin V-FITC staining based flow cytometry (reference value: 1.6%); format: functional
[23] = tested on: Hep 3B2; test: Induction of apoptosis in human Hep3B cells assessed as late apoptotic cells at 1 uM incubated for 24 hrs by PI and annexin V-FITC staining based flow cytometry (reference value: 1.6%); format: functional
[24] = tested on: Hep 3B2; test: Induction of apoptosis in human Hep3B cells assessed as necrotic cells at 3 uM incubated for 24 hrs by PI and annexin V-FITC staining based flow cytometry (reference value: 0.1%); format: functional

CC1=C(O)C(=O)C=C2C1=CC=C1[C@@]2(C)CC[C@@]2(C)[C@@H]3C[C@](C)(C(=O)OCCOc4cnc5ccccc5c4)CC[C@]3(C)CC[C@]12C
Activity [1]: 0.2% | Activity [2]: Active | Activity [3]: 1.9% | Activity [4]: 1.9% | Activity [5]: 6.2% | viability at 1 µM [6]: 96.6% | Activity [7]: Non-Toxic | viability at 3 µM [8]: 96.1% | Activity [9]: 0.2% | viability at 10 µM [10]: 87.9% | Activity [11]: Dose-Dependent Effect | Activity [12]: 5.7% | Activity [13]: Active | Activity [14]: 60.38% | solubility [15]: 28.1 µg/mL (≈ 45.2 µM) | Activity [16]: Non-Toxic | Activity [17]: 74.3% | inhibition [18]: Dose-Dependent Effect | inhibition [19]: Dose-Dependent Effect | Activity [20]: Dose-Dependent Effect | IC50 [21]: 16.9 µM | Activity [22]: 2% | Activity [23]: 1.4% | Activity [24]: 0%

COc1ccc(-n2cc(CNC(=O)COC(=O)[C@]3(C)CC[C@]4(C)CC[C@]5(C)C6=CC=C7C(=CC(=O)C(O)=C7C)[C@]6(C)CC[C@@]5(C)[C@@H]4C3)nn2)cc1
IC50 [21]: 9.11 µM

CC1=C(O)C(=O)C=C2C1=CC=C1[C@@]2(C)CC[C@@]2(C)[C@@H]3C[C@](C)(C(=O)O)CC[C@]3(C)CC[C@]12C [CELASTROL]
solubility [15]: 38.2 µg/mL (≈ 84.8 µM) | IC50 [21]: 0.76 µM

CC1=C(O)C(=O)C=C2C1=CC=C1[C@@]2(C)CC[C@@]2(C)[C@@H]3C[C@](C)(C(=O)OCC(=O)NCc4cn(-c5ccc(Cl)cc5)nn4)CC[C@]3(C)CC[C@]12C
IC50 [21]: 21.9 µM

CC1=C(O)C(=O)C=C2C1=CC=C1[C@@]2(C)CC[C@@]2(C)[C@@H]3C[C@](C)(C(=O)OCC(=O)NCc4cn(-c5ccc(C)cc5)nn4)CC[C@]3(C)CC[C@]12C
IC50 [21]: 2.72 µM

CC1=C(O)C(=O)C=C2C1=CC=C1[C@@]2(C)CC[C@@]2(C)[C@@H]3C[C@](C)(C(=O)OCCOc4cccc5ncccc45)CC[C@]3(C)CC[C@]12C
IC50 [21]: 14.4 µM

CC1=C(O)C(=O)C=C2C1=CC=C1[C@@]2(C)CC[C@@]2(C)[C@@H]3C[C@](C)(C(=O)OCCOc4cc(C)oc(=O)c4)CC[C@]3(C)CC[C@]12C
IC50 [21]: 1.16 µM

O=c1[nH]cc(F)c(=O)[nH]1 [FLUOROURACIL]
Activity [2]: Active | Activity [16]: Non-Toxic | Activity [17]: 59.58%

CC1=C(O)C(=O)C=C2C1=CC=C1[C@@]2(C)CC[C@@]2(C)[C@@H]3C[C@](C)(C(=O)OCC(=O)NCc4cn(-c5ccccc5)nn4)CC[C@]3(C)CC[C@]12C
IC50 [21]: 1.16 µM

CC1=C(O)C(=O)C=C2C1=CC=C1[C@@]2(C)CC[C@@]2(C)[C@@H]3C[C@](C)(C(=O)OCC(=O)Nc4cnc5ccccc5c4)CC[C@]3(C)CC[C@]12C
IC50 [21]: 1.04 µM

CC1=C(O)C(=O)C=C2C1=CC=C1[C@@]2(C)CC[C@@]2(C)[C@@H]3C[C@](C)(C(=O)OCCOc4ccc5ccc(=O)oc5c4)CC[C@]3(C)CC[C@]12C
IC50 [21]: 2.45 µM

CCOP(=O)(OCC)C(NC(=O)COC(=O)[C@]1(C)CC[C@]2(C)CC[C@]3(C)C4=CC=C5C(=CC(=O)C(O)=C5C)[C@]4(C)CC[C@@]3(C)[C@@H]2C1)c1ccc(C)cc1 (some centres not stated)
IC50 [21]: 4.55 µM

CC1=C(O)C(=O)C=C2C1=CC=C1[C@@]2(C)CC[C@@]2(C)[C@@H]3C[C@](C)(C(=O)OCC(=O)Nc4ccncc4)CC[C@]3(C)CC[C@]12C
IC50 [21]: 234 µM

CC1=C(O)C(=O)C=C2C1=CC=C1[C@@]2(C)CC[C@@]2(C)[C@@H]3C[C@](C)(C(=O)OCC(=O)NCc4cn(-c5ccc(Cl)c(Cl)c5)nn4)CC[C@]3(C)CC[C@]12C
IC50 [21]: 2.45 µM

CC1=C(O)C(=O)C=C2C1=CC=C1[C@@]2(C)CC[C@@]2(C)[C@@H]3C[C@](C)(C(=O)OCCOc4cc(=O)oc5ccccc45)CC[C@]3(C)CC[C@]12C
IC50 [21]: 134 µM

CC1=C(O)C(=O)C=C2C1=CC=C1[C@@]2(C)CC[C@@]2(C)[C@@H]3C[C@](C)(C(=O)OCC(=O)Nc4cc(C)on4)CC[C@]3(C)CC[C@]12C
IC50 [21]: 3.07 µM

CC1=C(O)C(=O)C=C2C1=CC=C1[C@@]2(C)CC[C@@]2(C)[C@@H]3C[C@](C)(C(=O)OCC(=O)Nc4cccc5ncccc45)CC[C@]3(C)CC[C@]12C
IC50 [21]: 1.11 µM

CC1=C(O)C(=O)C=C2C1=CC=C1[C@@]2(C)CC[C@@]2(C)[C@@H]3C[C@](C)(C(=O)OCC(=O)Nc4ccc(F)cn4)CC[C@]3(C)CC[C@]12C
IC50 [21]: 1.26 µM

CC1=C(O)C(=O)C=C2C1=CC=C1[C@@]2(C)CC[C@@]2(C)[C@@H]3C[C@](C)(C(=O)OCC(=O)Nc4cccc5cccnc45)CC[C@]3(C)CC[C@]12C
IC50 [21]: 1.69 µM

CCOP(=O)(OCC)C(NC(=O)COC(=O)[C@]1(C)CC[C@]2(C)CC[C@]3(C)C4=CC=C5C(=CC(=O)C(O)=C5C)[C@]4(C)CC[C@@]3(C)[C@@H]2C1)c1ccc(OC)cc1 (some centres not stated)
IC50 [21]: 1.48 µM

CC1=C(O)C(=O)C=C2C1=CC=C1[C@@]2(C)CC[C@@]2(C)[C@@H]3C[C@](C)(C(=O)OCC(=O)Nc4ccc(F)nc4)CC[C@]3(C)CC[C@]12C
IC50 [21]: 4.21 µM

CC1=C(O)C(=O)C=C2C1=CC=C1[C@@]2(C)CC[C@@]2(C)[C@@H]3C[C@](C)(C(=O)OCC(=O)Nc4ccnc5ccccc45)CC[C@]3(C)CC[C@]12C
IC50 [21]: 4 µM

CCOP(=O)(OCC)C(NC(=O)COC(=O)[C@]1(C)CC[C@]2(C)CC[C@]3(C)C4=CC=C5C(=CC(=O)C(O)=C5C)[C@]4(C)CC[C@@]3(C)[C@@H]2C1)c1ccccc1 (some centres not stated)
IC50 [21]: 1.17 µM

CC1=C(O)C(=O)C=C2C1=CC=C1[C@@]2(C)CC[C@@]2(C)[C@@H]3C[C@](C)(C(=O)OCC(=O)Nc4ccc5ncccc5c4)CC[C@]3(C)CC[C@]12C
IC50 [21]: 2.91 µM

CC1=C(O)C(=O)C=C2C1=CC=C1[C@@]2(C)CC[C@@]2(C)[C@@H]3C[C@](C)(C(=O)OCCOc4ccc5cccnc5c4)CC[C@]3(C)CC[C@]12C
IC50 [21]: 5.27 µM

CCOP(=O)(OCC)C(NC(=O)COC(=O)[C@]1(C)CC[C@]2(C)CC[C@]3(C)C4=CC=C5C(=CC(=O)C(O)=C5C)[C@]4(C)CC[C@@]3(C)[C@@H]2C1)c1ccc(F)cc1 (some centres not stated)
IC50 [21]: 2.33 µM
